Assays:
[1] = test system: DSS-colitis; assay: DSS-colitis (acute colitis) mouse model: weight loss, DAI, symptoms, crypt score; type: in vivo, C57BL/6 mice
Excerpt: Animals. Pathogen-free male C57BL/6 mice, 4-6 weeks of age (Taconic; C57BL/6×129 svj strain) were used in this example. Mice were kept for one week at 4 mice/cage and fed normal laboratory chow and drinking water ad libitum prior to the experiments. All mice weighed between 22.5 g and 27.7 g at the beginning of the trial. The animal experimentation protocol was reviewed and approved by the Animal Care and Use Committees of the Beth Israel Deaconess Medical Center.
Induction of Colitis. Colitis was induced by feeding mice 5% (wt/v) dextran sodium sulfate (DSS) (MW 40,000; ICN Biomedicals Inc., OH), dissolved in distilled water, for a period of 7 days. The resulting condition was termed “DSS-colitis.” Control animals were fed distilled water ad libitum. The mortality rate in the control group and the CO-treated group was 10% (2/20) and 14% (2/14), respectively. These animals were excluded from the statistical analysis. In the other groups, no mortality occurred during 7 days of 5% DSS treatment.
Experimental Reagents and Treatment Protocol. Cobalt protoporphyrin (CoPPIX), zinc protoporphyrin (ZnPPIX, Porphyrin Products, Logan, Utah) and biliverdin dihydrochloride (ICN Biomedicals Inc., OH) were dissolved in a small amount 0.2 M NaOH, subsequently adjusted to a pH of 7.4 with 1 M HCl, and diluted in 0.9% NaCl. The stock solutions (CoPPIX and ZnPPIX=1 mg/ml, biliverdin=10 mM) were aliquoted and kept at −70° C. until used. Light exposure was limited as much as possible. CoPPIX (5 mg/kg), ZnPPIX (20 mg/kg) and biliverdin (50 μmol/kg) were administered to the mice intraperitoneally (i.p.) 24 hours before induction of DSS-colitis and daily thereafter. Desferoxamine (DFO) was prepared in imidazole buffer (50 mM imidazole, 220 mM NaCl, pH 7.4). DFO was injected subcutaneously (s.c.) twice daily (125 mg/kg) or infused i.p. (130 mg/kg/day; pumping rate 0.5 μl/hour for 8 days) by miniosmotic Alzet™ pumps (Alza Corporation, Palo Alto, Calif.) (Postma et al., Exp. Parasitol. 89(3):323-30 1998). The pumps were installed i.p. 24 hours before induction of colitis. When animals were sacrificed at day 7 of DSS treatment, the pumps were removed and evaluated to determine if DFO application had taken place.
CO gas was administrated exogenously by putting animals in a CO exposure chamber (Otterbein et al., Nat. Med. 6(4):422-8, 2000). Briefly, CO at a concentration of 1% (10,000 parts per million (ppm)) in compressed air was mixed with balanced air (21% oxygen) in a stainless steel mixing cylinder before entering the exposure chamber. CO concentrations were controlled by varying the flow rates of CO in a mixing cylinder before delivery to the chamber. Because the flow rate is primarily determined by the O2 flow, only the CO flow was changed to deliver the final concentration to the exposure chamber. A CO analyzer (Interscan Corporation, Chatsworth, Calif.) was used to measure CO levels continuously in the chamber. Mice were placed in the chamber 24 hours before the induction of the colitis and were kept in the exposure chamber during the whole period of the experiment (total of 8 days). […] Animals were removed daily from the chamber to assess weight and stool.
Evaluation of Symptoms of Colitis. All animals were evaluated clinically on a daily basis. The evaluation of each animal included a measurement of weight, hemoccult positivity and examination of stool for the presence of gross blood and stool consistency. The disease activity index (DAI) was calculated by scoring percent weight loss, intestinal bleeding (no blood; occult blood=hemoccult+; gross blood) and stool consistency (normal stool=well-formed pellets; loose stool=pasty and semiformed stools; diarrhea=liquid stool that stuck to the anus) (Table 1).
The animals were sacrificed, and the whole colon from the colo-cecal junction to the anal verge was removed and gently cleaned of stool. […]

[2] = test system: IL-6; assay: Real time RT-PCR of graft muscularis after SITx, IL-6; type: in vivo, LEW rats; settings: figure legend 23A-23D, graft muscularis 4 hours after transplantation
Protocol: Small Intestinal Transplantation. Orthotopic small intestinal transplantation (SITx) was performed in syngeneic Lewis rats. SITx with caval drainage was performed using a previously described procedure (Murase et al., in Handbook of Animal Models in Transplantation Research, Cramer et al., Eds. CRC Press, Boca Raton, Fla., pp. 203-213 (1994)). […] The graft was perfused via the aortic segment with 5 ml chilled Ringer's lactate solution, and the intestinal lumen was irrigated with 20 ml of cold saline solution containing 0.5% neomycin-sulfate (Sigma, St. Louis, Mo.). End-to-side anastomoses between the graft aorta and the recipient infrarenal aorta, and between the graft portal vein and recipient vena cava, were performed with 10-0 Novafil™ suture. The cold ischemic time was 1 hour. The entire recipient intestine was removed and the enteric continuity was restored by proximal and distal end-to-end intestinal anastomoses. Recipient animals were given 20 mg/day prophylactic cefamandole nafate for 3 postoperative days. Transplanted recipients were given water 3 hours after surgery, and were fed 24 hours after surgery.
(§1) SYBR green real time RT-PCR. The effects of administration of biliverdin on transplant-induced pro-inflammatory and anti-inflammatory gene expression were assessed in muscularis extracts by RT-PCR Biliverdin ([…], i.p.) was administered to both the donor and recipient three hours preoperatively. The muscularis externae was collected from normal intestine and transplanted grafts 4 hours postoperatively and snap frozen in liquid nitrogen. […] Equal aliquots (5 μg) of total RNA from each sample were quantified by spectrophotometry (wavelength […]) and aliquoted at a concentration of 40 ng/μl. Peak mRNA expression was quantified in duplicate by SYBR Green two-step, real-time RT-PCR. […] Real-time PCR data were plotted as the ΔRn fluorescence signal versus the cycle number. […] Quantification of mRNA expression was normalized to GAPDH and calculated relative to control using the comparative CT method (Schmittgen et al., J. Biochem. Biophys. Methods 46(1-2):69-8, 2000). […]

[3] = test system: IL-1β; assay: Real time RT-PCR of graft muscularis after SITx, IL-1β; type: in vivo, LEW rats; settings: figure legend 23A-23D, graft muscularis 4 hours after transplantation
Protocol: Small Intestinal Transplantation. Orthotopic small intestinal transplantation (SITx) was performed in syngeneic Lewis rats. SITx with caval drainage was performed using a previously described procedure (Murase et al., in Handbook of Animal Models in Transplantation Research, Cramer et al., Eds. CRC Press, Boca Raton, Fla., pp. 203-213 (1994)). […] The graft was perfused via the aortic segment with 5 ml chilled Ringer's lactate solution, and the intestinal lumen was irrigated with 20 ml of cold saline solution containing 0.5% neomycin-sulfate (Sigma, St. Louis, Mo.). […]
as §1, with “preoperatively.” for “preoperatively. The muscularis externae was collected from normal intestine and transplanted grafts 4 hours postoperatively and snap frozen in liquid nitrogen.”

## [C-]#[O+] [CO, carbon monoxide]
[1]; 7 days of 5% DSS, CO exposure chamber 250-400 ppm
  mortality rate: 14%
[1]; continuous exposure to 200-400 ppm CO, compared to the control
  effect on DSS-colitis (weight loss, DAI): did not have an effect
[2]
  mean expression of IL-6 mRNA: significantly reduced
[3]
  mean expression of IL-1b mRNA: significantly reduced

From patent US8097585B2, “Methods of treating inflammation by administration of heme oxygenase-1 and products of heme degradation” (priority 2002, dated 2012)
